Assay results: patent US5151432A, “Substituted amino acid compounds” (Adir et Compagnie, priority 1989, dated 1992)

Legend:
[1] = test system: amnesic scopolamine-treated animals (scopolamine-induced amnesia); experiment: Promnesic effects: one trial-passive avoidance test in rats with scopolamine-induced amnesia; assay type: in vivo, Male OFA rats (Iffa-Credo); conditions: for % Retention at 300 sec. / Latency of transit: 24 h retention
From the text: Male OFA rats (Iffa-Credo) weighting 210-240 g are placed in individual cages under standard environmental conditions. The memory test is a test of one trial-passive avoidance in which experimental amnesia is induced by prior injection of scopolamine.
The apparatus consists of a two-compartment enclosure separated by an automatically closing door.
On the day of conditioning, each animal is placed during 60 seconds in the aversive compartment (white, brightly lit).
Then the door is rapidly open and the rat can freely enter the compartment where it feels secure (black and dark). Transit thereto triggers closing of the door, followed by application to the animal of an unescapable electric shock via the floor of the dark compartment (0.6 mA; 3 seconds).
Memory retention is measured 24 hours later under the same conditions. For this purpose, the latency of transit to the black compartment is measured and the maximum observation time is set at 300 seconds.
The memory enhancing effect of the compounds under investigation is measured in animals receiving scopolamine. These compounds are administered I.P. twice daily during the 3 days preceding the memory test, and then 1 hour before the conditioning test (i.e. 30 minutes before the scopolamine).
The promnesic effects of the compounds increase the transit time relative to the amnesic animals.
The compounds of the present invention are compared to oxiracetam, the nootropic agent most recently proposed in the therapy of memory disorders.

[2] = target: angiotensin I converting enzyme (Homo sapiens, UniProt P12821); experiment: Inhibitory effects on angiotensin I converting enzyme in vitro (conversion of hippurylhistidylleucine to hippuric acid, RYAN method); assay type: biochemical; conditions: substrate HHL
Chain of angiotensin I converting enzyme (P12821 30-1306): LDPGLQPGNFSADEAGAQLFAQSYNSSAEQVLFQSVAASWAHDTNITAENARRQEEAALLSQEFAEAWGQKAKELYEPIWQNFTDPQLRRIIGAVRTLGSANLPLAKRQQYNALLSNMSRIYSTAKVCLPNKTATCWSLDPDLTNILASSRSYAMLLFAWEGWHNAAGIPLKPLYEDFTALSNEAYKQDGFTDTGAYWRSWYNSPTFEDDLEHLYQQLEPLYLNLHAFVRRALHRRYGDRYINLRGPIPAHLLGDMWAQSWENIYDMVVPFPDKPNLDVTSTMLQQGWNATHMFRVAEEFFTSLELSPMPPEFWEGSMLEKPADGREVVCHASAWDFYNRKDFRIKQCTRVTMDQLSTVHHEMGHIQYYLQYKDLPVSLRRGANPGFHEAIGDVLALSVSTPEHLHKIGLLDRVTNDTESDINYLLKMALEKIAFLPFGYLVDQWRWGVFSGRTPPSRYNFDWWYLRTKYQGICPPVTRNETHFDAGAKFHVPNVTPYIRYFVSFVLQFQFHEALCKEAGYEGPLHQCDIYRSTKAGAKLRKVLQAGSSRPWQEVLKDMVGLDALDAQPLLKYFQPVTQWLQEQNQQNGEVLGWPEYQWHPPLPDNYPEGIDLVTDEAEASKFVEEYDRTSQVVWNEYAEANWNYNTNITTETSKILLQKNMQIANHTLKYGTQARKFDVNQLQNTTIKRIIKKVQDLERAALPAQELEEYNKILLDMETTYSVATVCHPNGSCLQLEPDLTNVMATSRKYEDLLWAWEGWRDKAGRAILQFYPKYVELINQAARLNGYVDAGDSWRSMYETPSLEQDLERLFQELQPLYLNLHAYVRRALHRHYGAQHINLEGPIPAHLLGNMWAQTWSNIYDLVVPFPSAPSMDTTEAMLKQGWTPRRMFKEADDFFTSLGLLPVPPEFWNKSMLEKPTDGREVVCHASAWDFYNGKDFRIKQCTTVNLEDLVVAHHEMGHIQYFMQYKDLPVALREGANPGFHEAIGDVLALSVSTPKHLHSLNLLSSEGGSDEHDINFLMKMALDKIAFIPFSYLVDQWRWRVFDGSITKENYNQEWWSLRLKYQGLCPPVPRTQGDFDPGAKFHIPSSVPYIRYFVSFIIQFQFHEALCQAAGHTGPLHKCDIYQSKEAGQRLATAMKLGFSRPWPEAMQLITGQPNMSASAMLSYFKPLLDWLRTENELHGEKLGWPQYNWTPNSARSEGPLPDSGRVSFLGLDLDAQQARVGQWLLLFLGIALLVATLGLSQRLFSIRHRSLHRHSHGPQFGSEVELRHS
Protocol: The activity of the converting enzyme is determined in vitro according to the method of RYAN J. W. et al. (Biochem. J., 1977, 167, 501-504), which utilizes the reaction of conversion of hippurylhistidylleucine (HHL) to hippuric acid. The latter is assayed by liquid scintillation after extraction with ethyl acetate. The inhibitory effect of a compound is determined by incubation at different doses in the presence of the substrate and the converting enzyme. The results are expressed as the IC50 of these compounds.

Row | SMILES | % Retention at 300 sec. ([1]; 0.003 mg/kg I.P.) [%] | Latency of transit ([1]; 0.003 mg/kg I.P.) [s] | % Retention at 300 sec. ([1]; 0.01 mg/kg I.P.) [%] | Latency of transit ([1]; 0.01 mg/kg I.P.) [s] | % Retention at 300 sec. ([1]; 0.03 mg/kg I.P.) [%] | Latency of transit ([1]; 0.03 mg/kg I.P.) [s] | % Retention at 300 sec. ([1]; 0.1 mg/kg I.P.) [%] | Latency of transit ([1]; 0.1 mg/kg I.P.) [s] | % Retention at 300 sec. ([1]; 0.3 mg/kg I.P.) [%] | Latency of transit ([1]; 0.3 mg/kg I.P.) [s] | % Retention at 300 sec. ([1]; 1 mg/kg I.P.) [%] | Latency of transit ([1]; 1 mg/kg I.P.) [s] | % Retention at 300 sec. ([1]; 3 mg/kg I.P.) [%] | Latency of transit ([1]; 3 mg/kg I.P.) [s] | IC50 [2] [µM] | further results
1 | CCC[C@H](N[C@@H](C)C(=O)N1C2CCC(CC2)[C@H]1C(N)=O)C(N)=O [Example 3, (3S)-2-{(S)-2-[(S)-1-CARBAMOYLBUTYL-AMINO]PROPIONYL}-3-CARBAMOYL-2-AZABICYCLO[2.2.2]OCTANE] | 5 | 108.2 | 10 | 119.3 | 35 | 166.4 | 45 | 171.6 | 40 | 182.6 | 20 | 125.2 | 10 | 121.3 |  | 
2 | CCC[C@H](N[C@@H](C)C(=O)N1C2CCC(CC2)[C@H]1C(N)=O)C(=O)O [Example 2, (3S)-2-{(S)-2-[(S)-1-CARBOXYBUTYLAMINO]-PROPIONYL}-3-CARBAMOYL-2-AZABICYCLO-[2.2.2]OCTANE] |  |  |  |  |  |  |  |  |  |  |  |  |  |  | 0.05 | 
3 | NC(=O)CN1CC(O)CC1=O (stereo not drawn) [OXIRACETAM, oxiracetam, reference compound] |  |  |  |  |  |  |  |  |  |  | 10 | 97.4 | 10 | 126.5 |  | % Retention at 300 sec. ([1]; 10 mg/kg I.P.): 5%; Latency of transit ([1]; 10 mg/kg I.P.): 115.3 s; % Retention at 300 sec. ([1]; 30 mg/kg I.P.): 30%; Latency of transit ([1]; 30 mg/kg I.P.): 150.1 s; % Retention at 300 sec. ([1]; 100 mg/kg I.P.): 40%; Latency of transit ([1]; 100 mg/kg I.P.): 182.5 s; % Retention at 300 sec. ([1]; 300 mg/kg I.P.): 45%; Latency of transit ([1]; 300 mg/kg I.P.): 200.2 s; % Retention at 300 sec. ([1]; 1000 mg/kg I.P.): 30%; Latency of transit ([1]; 1000 mg/kg I.P.): 175.8 s; minimal effective dose ([1]; Rattus norvegicus, ip, I.P., minimal active dose, read-out: dose with protective effect (scopolamine-induced amnesia)): ≥ 30 mg/kg
4 | NCCCC[C@H](N[C@@H](CCc1ccccc1)C(=O)O)C(=O)N1C2CCC(CC2)[C@H]1C(N)=O [Example 8, (3S)-2-{(S)-2-[(S)-1-CARBOXY-3-PHENYLPROPYLAMINO]-6-AMINOHEXANOYL}-3-CARBAMOYL-2-AZABICYCLO[2.2.2]OCTANE] |  |  |  |  |  |  |  |  |  |  |  |  |  |  | 0.018 | 
5 | CCCCCCCCOC(=O)[C@@H]1C2CCC(CC2)N1C(=O)[C@H](C)N[C@@H](CCC)C(N)=O [Example 4, (3S)-2-{(S)-2-[(S)-1-CARBAMOYLBUTYLAMINO]PROPIONYL}-2-AZABICYCLO[2.2.2]-OCTANE-3-CARBOXYLIC ACID n-OCTYL ESTER] | 10 | 115.6 | 30 | 149.3 | 50 | 205.1 | 55 | 207.2 | 40 | 202.1 | 40 | 171.5 | 5 | 106.7 |  | 
